{
  "source": "patent US20210393540A1",
  "about": "“NANOPARTICLE-ENCAPSULATED CANNABINOIDS AND METHODS FOR MAKING AND USING SAME” (NuRevelation, LLC, priority 2020, published 2021)",
  "assay": "Stability of CBD after encapsulation into nanoparticles, by NMR spectra",
  "assay_type": "physicochemical",
  "details": "NMR spectrum of CBD after encapsulation into nanoparticles (bottom) relative to non-encapsulated CBD sample (top), FIG. 3",
  "from_the_text": "In some aspects, the cannabinoid in the dispersion can have a purity of at least 90%. In a further aspect, the purity of the cannabinoid in the dispersion ranges from 90-100%. In a still further aspect, the purity of the cannabinoid in the dispersion ranges from 92-97%. In general, the inventors have discovered that the encapsulation process described herein can be improved with the use of a pure cannabinoid starting material (e.g., from 92-97% pure). Similarly, the nanoparticle encapsulated cannabinoid products can advantageously maintain the purity of the cannabinoid over extended periods of time. In some aspects, the purity of the cannabinoid starting material can be maintained once encapsulated for a period of twelve months or longer, e.g., 18 months or longer, or even 24 months or longer. The stable shelf life of the cannabinoid nanoparticles is an advantage over many existing methods for delivering cannabinoid products. In some aspects, the stability of the cannabinoid can be measured using NMR, e.g., by comparing a pre-encapsulated cannabinoid to a cannabinoid extracted from a nanoparticle prepared by a disclosed method.",
  "data": [
    {"smiles": "C=C(C)[C@@H]1CCC(C)=C[C@H]1c1c(O)cc(CCCCC)cc1O", "note": "[CBD, cannabidiol]", "values": [
      {"measurement": "stability of CBD after encapsulation", "result": "remains intact"}
    ]}
  ]
}
